According to patent publication US10689367B2, “Triazole pyridyl compounds as agonists of the APJ receptor” (AMGEN INC., priority 2016, dated 2020):

Target: human APJ receptor (Homo sapiens (Human), UniProt P35414)
Test: [35S]GTPγS binding assay on membranes from CHO cells stably expressing human APJ receptor
Format: biochemical
Settings: membranes of CHO cells stably expressing human APJ receptor, read-out: Activity hAPJ SPA EC50 IP
Method in brief: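 [35S]GTPγS binding measured on membranes from CHO cells stably expressing FLAG-tagged human APJ, with GDP, MgCl2 and NaCl levels optimized beforehand. Incubation 90 min at RT, imager read-out; EC50 from non-linear regression, averaged over several independent experiments.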

Chain of human APJ receptor (P35414 whole entry): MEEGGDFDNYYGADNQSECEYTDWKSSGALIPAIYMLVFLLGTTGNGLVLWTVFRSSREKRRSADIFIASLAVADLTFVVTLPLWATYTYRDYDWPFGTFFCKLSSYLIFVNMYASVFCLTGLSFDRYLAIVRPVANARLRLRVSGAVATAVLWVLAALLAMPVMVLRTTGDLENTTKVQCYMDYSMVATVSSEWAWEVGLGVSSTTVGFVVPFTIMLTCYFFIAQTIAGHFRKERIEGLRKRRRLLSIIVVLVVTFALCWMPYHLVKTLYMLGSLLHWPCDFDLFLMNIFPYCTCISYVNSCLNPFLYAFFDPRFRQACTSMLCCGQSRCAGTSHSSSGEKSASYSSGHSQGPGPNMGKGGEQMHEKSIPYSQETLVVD

| Compound | EC50 [nM] |
| --- | --- |
| COc1cccc(-c2nnc(NS(=O)(=O)[C@@H](C)[C@@H](OC(C)C)c3ncc(C)cn3)n2[C@@H](C)c2ccno2)n1 (single isomer, unassigned) [Example 217.0, (1S,2S)-N-(5-(6-methoxy-2-pyridinyl)-4-((1R)-1-(1,2-oxazol-5-yl)ethyl)-4H-1,2,4-triazol-3-yl)-1-(5-methyl-2-pyrimidinyl)-1-(2-propanyloxy)-2-propanesulfonamide or (1S,2S)-N-(5-(6-methoxy-2-pyridinyl)-4-((1S)-1-(1,2-oxazol-5-yl)ethyl)-4H-1,2,4-triazol-3-yl)-1-(5-methyl-2-pyrimidinyl)-1-(2-propanyloxy)-2-propanesulfonamide] | 5.3 |
| CC[C@@H](c1c(C)noc1C)n1c(NS(=O)(=O)[C@@H](C)[C@H](OC)c2ncc(Cl)cn2)nnc1-c1cccc(OC)n1 (single isomer, unassigned) [Example 218.0, (1R,2S)-1-(5-chloro-2-pyrimidinyl)-N-(4-((1S)-1-(3,5-dimethyl-1,2-oxazol-4-yl)propyl)-5-(6-methoxy-2-pyridinyl)-4H-1,2,4-triazol-3-yl)-1-methoxy-2-propanesulfonamide or (1R,2S)-1-(5-chloro-2-pyrimidinyl)-N-(4-((1S)-1-(3,5-dimethyl-1,2-oxazol-4-yl)propyl)-5-(6-methoxy-2-pyridinyl)-4H-1,2,4-triazol-3-yl)-1-methoxy-2-propanesulfonamide] | 3.7 |
| CC[C@@H](c1c(C)noc1C)n1c(NS(=O)(=O)[C@@H](C)[C@H](OC)c2ncc(Cl)cn2)nnc1-c1cccc(OC)n1 (single isomer, unassigned) [Example 219.0, (1R,2S)-1-(5-chloro-2-pyrimidinyl)-N-(4-((1R)-1-(3,5-dimethyl-1,2-oxazol-4-yl)propyl)-5-(6-methoxy-2-pyridinyl)-4H-1,2,4-triazol-3-yl)-1-methoxy-2-propanesulfonamide or (1R,2S)-1-(5-chloro-2-pyrimidinyl)-N-(4-((1S)-1-(3,5-dimethyl-1,2-oxazol-4-yl)propyl)-5-(6-methoxy-2-pyridinyl)-4H-1,2,4-triazol-3-yl)-1-methoxy-2-propanesulfonamide] | 1.8 |
| CC[C@@H](c1c(C)noc1C)n1c(NS(=O)(=O)[C@@H](C)[C@@H](OC(C)C)c2ncc(C)cn2)nnc1-c1cccc(OC)n1 (single isomer, unassigned) [Example 220.0, (1S,2S)-N-(4-((1S)-1-(3,5-dimethyl-1,2-oxazol-4-yl)propyl)-5-(6-methoxy-2-pyridinyl)-4H-1,2,4-triazol-3-yl)-1-(5-methyl-2-pyrimidinyl)-1-(2-propanyloxy)-2-propanesulfonamide or (1S,2S)-N-(4-((1R)-1-(3,5-dimethyl-1,2-oxazol-4-yl)propyl)-5-(6-methoxy-2-pyridinyl)-4H-1,2,4-triazol-3-yl)-1-(5-methyl-2-pyrimidinyl)-1-(2-propanyloxy)-2-propanesulfonamide] | 55 |
| CC[C@@H](c1c(C)noc1C)n1c(NS(=O)(=O)[C@@H](C)[C@@H](OC(C)C)c2ncc(C)cn2)nnc1-c1cccc(OC)n1 (single isomer, unassigned) [Example 221.0, (1S,2S)-N-(4-((1R)-1-(3,5-dimethyl-1,2-oxazol-4-yl)propyl)-5-(6-methoxy-2-pyridinyl)-4H-1,2,4-triazol-3-yl)-1-(5-methyl-2-pyrimidinyl)-1-(2-propanyloxy)-2-propanesulfonamide or (1S,2S)-N-(4-((1S)-1-(3,5-dimethyl-1,2-oxazol-4-yl)propyl)-5-(6-methoxy-2-pyridinyl)-4H-1,2,4-triazol-3-yl)-1-(5-methyl-2-pyrimidinyl)-1-(2-propanyloxy)-2-propanesulfonamide] | 14 |
| CC[C@@H](c1c(C)noc1C)n1c(NS(=O)(=O)[C@@H](C)[C@H](OC)c2cnc(C)cn2)nnc1-c1cccc(OC)n1 (single isomer, unassigned) [Example 222.0, (1R,2S)-N-(4-((1S)-1-(3,5-dimethyl-1,2-oxazol-4-yl)propyl)-5-(6-methoxy-2-pyridinyl)-4H-1,2,4-triazol-3-yl)-1-methoxy-1-(5-methyl-2-pyrazinyl)-2-propanesulfonamide or (1R,2S)-N-(4-((1R)-1-(3,5-dimethyl-1,2-oxazol-4-yl)propyl)-5-(6-methoxy-2-pyridinyl)-4H-1,2,4-triazol-3-yl)-1-methoxy-1-(5-methyl-2-pyrazinyl)-2-propanesulfonamide] | 58 |
| CC[C@@H](c1c(C)noc1C)n1c(NS(=O)(=O)[C@@H](C)[C@H](OC)c2cnc(C)cn2)nnc1-c1cccc(OC)n1 (single isomer, unassigned) [Example 223.0, (1R,2S)-N-(4-((1R)-1-(3,5-dimethyl-1,2-oxazol-4-yl)propyl)-5-(6-methoxy-2-pyridinyl)-4H-1,2,4-triazol-3-yl)-1-methoxy-1-(5-methyl-2-pyrazinyl)-2-propanesulfonamide or (1R,2S)-N-(4-((1S)-1-(3,5-dimethyl-1,2-oxazol-4-yl)propyl)-5-(6-methoxy-2-pyridinyl)-4H-1,2,4-triazol-3-yl)-1-methoxy-1-(5-methyl-2-pyrazinyl)-2-propanesulfonamide] | 32 |
| CC[C@@H](c1c(C)noc1C)n1c(NS(=O)(=O)[C@@H](C)[C@H](C)c2ncc(Cl)cn2)nnc1-c1cccc(OC)n1 (single isomer, unassigned) [Example 224.0, (2S,3R)-3-(5-chloro-2-pyrimidinyl)-N-(4-((1S)-1-(3,5-dimethyl-1,2-oxazol-4-yl)propyl)-5-(6-methoxy-2-pyridinyl)-4H-1,2,4-triazol-3-yl)-2-butanesulfonamide or (2S,3R)-3-(5-chloro-2-pyrimidinyl)-N-(4-((1R)-1-(3,5-dimethyl-1,2-oxazol-4-yl)propyl)-5-(6-methoxy-2-pyridinyl)-4H-1,2,4-triazol-3-yl)-2-butanesulfonamide] | 13 |
| CC[C@@H](c1c(C)noc1C)n1c(NS(=O)(=O)[C@@H](C)[C@H](C)c2ncc(Cl)cn2)nnc1-c1cccc(OC)n1 (single isomer, unassigned) [Example 225.0, (2S,3R)-3-(5-chloro-2-pyrimidinyl)-N-(4-((1R)-1-(3,5-dimethyl-1,2-oxazol-4-yl)propyl)-5-(6-methoxy-2-pyridinyl)-4H-1,2,4-triazol-3-yl)-2-butanesulfonamide or (2S,3R)-3-(5-chloro-2-pyrimidinyl)-N-(4-((1S)-1-(3,5-dimethyl-1,2-oxazol-4-yl)propyl)-5-(6-methoxy-2-pyridinyl)-4H-1,2,4-triazol-3-yl)-2-butanesulfonamide] | 5.1 |
| COc1cccc(-c2nnc(NS(=O)(=O)[C@@H](C)[C@H](C)c3ncc(Cl)cn3)n2[C@H](c2conc2C)C2CC2)n1 (single isomer, unassigned) [Example 229.0, (2S,3R)-3-(5-chloro-2-pyrimidinyl)-N-(4-((S)-cyclopropyl(3-methyl-1,2-oxazol-4-yl)methyl)-5-(6-methoxy-2-pyridinyl)-4H-1,2,4-triazol-3-yl)-2-butanesulfonamide or (2S,3R)-3-(5-chloro-2-pyrimidinyl)-N-(4-((R)-cyclopropyl(3-methyl-1,2-oxazol-4-yl)methyl)-5-(6-methoxy-2-pyridinyl)-4H-1,2,4-triazol-3-yl)-2-butanesulfonamide] | 1.2 |
| COc1cccc(-c2nnc(NS(=O)(=O)[C@@H](C)[C@@H](OC(C)C)c3ncc(C)cn3)n2[C@H](c2conc2C)C2CC2)n1 (single isomer, unassigned) [Example 230.0, (1S,2S)-N-(4-((S)-cyclopropyl(3-methyl-1,2-oxazol-4-yl)methyl)-5-(6-methoxy-2-pyridinyl)-4H-1,2,4-triazol-3-yl)-1-(5-methyl-2-pyrimidinyl)-1-(2-propanyloxy)-2-propanesulfonamide or (1S,2S)-N-(4-((R)-cyclopropyl(3-methyl-1,2-oxazol-4-yl)methyl)-5-(6-methoxy-2-pyridinyl)-4H-1,2,4-triazol-3-yl)-1-(5-methyl-2-pyrimidinyl)-1-(2-propanyloxy)-2-propanesulfonamide] | 0.5 |
| CC[C@@H](c1conc1C)n1c(NS(=O)(=O)[C@@H](C)[C@H](C)c2ncc(Cl)cn2)nnc1-c1cccc(OC)n1 (single isomer, unassigned) [Example 231.0, (2S,3R)-3-(5-chloro-2-pyrimidinyl)-N-(5-(6-methoxy-2-pyridinyl)-4-((1S)-1-(3-methyl-1,2-oxazol-4-yl)propyl)-4H-1,2,4-triazol-3-yl)-2-butanesulfonamide or (2S,3R)-3-(5-chloro-2-pyrimidinyl)-N-(5-(6-methoxy-2-pyridinyl)-4-((1R)-1-(3-methyl-1,2-oxazol-4-yl)propyl)-4H-1,2,4-triazol-3-yl)-2-butanesulfonamide] | 21 |
| CC[C@@H](c1conc1C)n1c(NS(=O)(=O)[C@@H](C)[C@H](C)c2ncc(Cl)cn2)nnc1-c1cccc(OC)n1 (single isomer, unassigned) [Example 232.0, (2S,3R)-3-(5-chloro-2-pyrimidinyl)-N-(5-(6-methoxy-2-pyridinyl)-4-((1R)-1-(3-methyl-1,2-oxazol-4-yl)propyl)-4H-1,2,4-triazol-3-yl)-2-butanesulfonamide or (2S,3R)-3-(5-chloro-2-pyrimidinyl)-N-(5-(6-methoxy-2-pyridinyl)-4-((1S)-1-(3-methyl-1,2-oxazol-4-yl)propyl)-4H-1,2,4-triazol-3-yl)-2-butanesulfonamide] | 1.5 |
| COc1cccc(-c2nnc(NS(=O)(=O)[C@@H](C)[C@@H](OC(C)C)c3ncc(C)cn3)n2[C@@H](C)c2ncn(C)n2)n1 (single isomer, unassigned) [Example 233.0, (1S,2S)-N-(5-(6-methoxy-2-pyridinyl)-4-((1S)-1-(1-methyl-1H-1,2,4-triazol-3-yl)ethyl)-4H-1,2,4-triazol-3-yl)-1-(5-methyl-2-pyrimidinyl)-1-(2-propanyloxy)-2-propanesulfonamide or (1S,2S)-N-(5-(6-methoxy-2-pyridinyl)-4-((1R)-1-(1-methyl-1H-1,2,4-triazol-3-yl)ethyl)-4H-1,2,4-triazol-3-yl)-1-(5-methyl-2-pyrimidinyl)-1-(2-propanyloxy)-2-propanesulfonamide] | 10 |
